From patent US8669395B2, “Optically active 4-amino-3-(4-chlorophenyl)butanoic acid” (Sumitomo Chemical Company, Limited, priority 2009, dated 2014)

Tests used:
[1] = differential scanning calorimetry (DSC), Test Example 1; assay type: physicochemical; conditions: for Endothermic peak / Exothermic peak: DSC, 25 to 500° C., 10° C./minute, air-tightly closed SUS container
Description: About the DSC measurement, for example, a differential scanning calorimeter of an EXTER 6000 type, manufactured by SII Nano Technology Inc., is used to make it possible to make the measurement under the following conditions: […]
measuring temperature range: 25 to 500° C., temperature-raising rate: 10° C./minute, container: air-tightly closed SUS, sample amount: about 0.4 to 0.7 mg, reference: α-alumina having a weight of about 0.6 mg, and atmospheric gas flow rate: dried nitrogen, about 70 mL/minute.
About each of crystal A yielded according to the same process in Example 1, and crystal B yielded according to the same process in Comparative Example 1, a device manufactured by SII Nano Technology Inc., EXTER 6000, was used to measure the DSC thereof under differential scanning calorie analysis conditions described below.
(Differential Scanning Calorie Analysis Conditions)

[2] = solubility in 100 g of water, Test Example 2; assay type: physicochemical
Description: About each of crystal A yielded according to the same process in Example 1, and crystal B yielded according to the same process in Comparative Example 1, the solubility thereof in 100 g of water was measured.

Compound | Endothermic peak [1] [°C] | Exothermic peak [1] [°C] | solubility in 100 g of water ([2]; 25° C.) [g] | solubility in 100 g of water ([2]; 55° C.) [g] | solubility in 100 g of water ([2]; 75° C.) [g] | thermal stability ([1]; concluded from the DSC endothermic and exothermic peaks, compared with crystal B) | solubility in 100 g of water ([2]; 40° C.) [g]
NC[C@H](CC(=O)O)c1ccc(Cl)cc1 [Crystal B, (R)-4-amino-3-(4-chlorophenyl)butanoic acid, reference compound] | 187 | 349 | 1.98 | 2.59 | 2.86 | – | –
NC[C@H](CC(=O)O)c1ccc(Cl)cc1 [Crystal A, (R)-4-amino-3-(4-chlorophenyl)butanoic acid] | 203 | 386 | 0.88 | – | 2.20 | far better in thermal stability than crystal B | 1.16
